Organism: Rattus norvegicus
Type: toxicity, organism-based, Sprague-Dawley
Conditions: in vivo, po, route oral GAVAGE, […]; for ABSOLUTE EOSINOPHIL / ABSOLUTE LYMPHOCYTE / ABSOLUTE MONOCYTE / ABSOLUTE SEGMENTED NEUTROPHIL / BASOPHIL / EOSINOPHIL / ERYTHROCYTE COUNT / HEMATOCRIT / HEMOGLOBIN / LEUKOCYTE COUNT / LYMPHOCYTE / MEAN CORPUSCULAR HEMOGLOBIN / MEAN CORPUSCULAR HEMOGLOBIN CONCENTRATION / MEAN CORPUSCULAR VOLUME / MONOCYTE / NEUTROPHIL / NUCLEATED RED BLOOD CELLS / PLATELET COUNT: tissue Blood; for ALANINE AMINOTRANSFERASE / ALBUMIN / ALKALINE PHOSPHATASE / ASPARTATE AMINOTRANSFERASE / BLOOD UREA NITROGEN / CARBON DIOXIDE / CHLORIDE / CHOLESTEROL / CREATINE PHOSPHOKINASE / CREATININE / GLUCOSE / LACTATE DEHYDROGENASE / LIPASE / PHOSPHORUS / POTASSIUM / SODIUM / TOTAL BILIRUBIN / TOTAL PROTEIN / URIC ACID: tissue Plasma
[1] = 400 mg/kg, 24 h, dose level Low, time 1 day
[2] = 1175 mg/kg, 6 h, dose level High, time 0.25 day
[3] = 1175 mg/kg, 24 h, dose level High, time 1 day

Description: DrugMatrix - Regimen: Single

## ClC(Cl)(Cl)Cl [CARBON TETRACHLORIDE]
[1]
  ABSOLUTE EOSINOPHIL: 0 CELLS/uL
  ABSOLUTE LYMPHOCYTE: 6780.67 CELLS/uL
  ABSOLUTE MONOCYTE: 96.83 CELLS/uL
  ABSOLUTE SEGMENTED NEUTROPHIL: 789.17 CELLS/uL
  BASOPHIL: 0%
  EOSINOPHIL: 0%
  ERYTHROCYTE COUNT: 5.7 x10E6/uL
  HEMATOCRIT: 35.63%
  HEMOGLOBIN: 14.05 G/DL
  LEUKOCYTE COUNT: 7.67 x10E3/uL
  LYMPHOCYTE: 88%
  MEAN CORPUSCULAR HEMOGLOBIN: 24.7 pg
  MEAN CORPUSCULAR HEMOGLOBIN CONCENTRATION: 39.43 G/DL
  MEAN CORPUSCULAR VOLUME: 62.67 fL
  MONOCYTE: 1.17%
  NEUTROPHIL: 10.83%
  NUCLEATED RED BLOOD CELLS: 0 /100WBC
  PLATELET COUNT: 966 x10E3/uL
  ALANINE AMINOTRANSFERASE: 129.17 u/L
  ALBUMIN: 4.17 G/DL
  ALKALINE PHOSPHATASE: 338.17 u/L
  ASPARTATE AMINOTRANSFERASE: 420.5 u/L
  BLOOD UREA NITROGEN: 16.33 mg/dL
  CARBON DIOXIDE: 34.33 mmol/L
  CHLORIDE: 98.5 MEQ/L
  CHOLESTEROL: 58 mg/dL
  CREATINE PHOSPHOKINASE: 252 u/L
  CREATININE: 0.29 mg/dL
  GLUCOSE: 127.33 mg/dL
  LACTATE DEHYDROGENASE: 240.17 u/L
  LIPASE: 9.83 u/L
  PHOSPHORUS: 9.37 mg/dL
  POTASSIUM: 5.7 MEQ/L
  SODIUM: 144.08 MEQ/L
  TOTAL BILIRUBIN: 0.22 mg/dL
  TOTAL PROTEIN: 6.3 G/DL
  URIC ACID: 0.53 mg/dL
[2]
  ABSOLUTE EOSINOPHIL: 83.17 CELLS/uL
  ABSOLUTE LYMPHOCYTE: 9204 CELLS/uL
  ABSOLUTE MONOCYTE: 323.67 CELLS/uL
  ABSOLUTE SEGMENTED NEUTROPHIL: 4922.5 CELLS/uL
  BASOPHIL: 0%
  EOSINOPHIL: 0.5%
  ERYTHROCYTE COUNT: 5.84 x10E6/uL
  HEMATOCRIT: 39.2%
  HEMOGLOBIN: 14.45 G/DL
  LEUKOCYTE COUNT: 14.53 x10E3/uL
  LYMPHOCYTE: 63.5%
  MEAN CORPUSCULAR HEMOGLOBIN: 24.75 pg
  MEAN CORPUSCULAR HEMOGLOBIN CONCENTRATION: 36.87 G/DL
  MEAN CORPUSCULAR VOLUME: 67.08 fL
  MONOCYTE: 2%
  NEUTROPHIL: 34%
  NUCLEATED RED BLOOD CELLS: 0.17 /100WBC
  PLATELET COUNT: 1289.67 x10E3/uL
  ALANINE AMINOTRANSFERASE: 157 u/L
  ALBUMIN: 4.5 G/DL
  ALKALINE PHOSPHATASE: 379.83 u/L
  ASPARTATE AMINOTRANSFERASE: 369 u/L
  BLOOD UREA NITROGEN: 14.83 mg/dL
  CARBON DIOXIDE: 21 mmol/L
  CHLORIDE: 97.83 MEQ/L
  CHOLESTEROL: 59.17 mg/dL
  CREATINE PHOSPHOKINASE: 433.5 u/L
  CREATININE: 0.14 mg/dL
  GLUCOSE: 128.33 mg/dL
  LACTATE DEHYDROGENASE: 1251.5 u/L
  LIPASE: 9.83 u/L
  PHOSPHORUS: 13.47 mg/dL
  POTASSIUM: 5.85 MEQ/L
  SODIUM: 140.9 MEQ/L
  TOTAL BILIRUBIN: 0.32 mg/dL
  TOTAL PROTEIN: 5.88 G/DL
  URIC ACID: 2.1 mg/dL
[3]
  ABSOLUTE EOSINOPHIL: 28.67 CELLS/uL
  ABSOLUTE LYMPHOCYTE: 8687.33 CELLS/uL
  ABSOLUTE MONOCYTE: 78.33 CELLS/uL
  ABSOLUTE SEGMENTED NEUTROPHIL: 1872.33 CELLS/uL
  BASOPHIL: 0%
  EOSINOPHIL: 0.33%
  ERYTHROCYTE COUNT: 5.91 x10E6/uL
  HEMATOCRIT: 37.1%
  HEMOGLOBIN: 14.7 G/DL
  LEUKOCYTE COUNT: 10.67 x10E3/uL
  LYMPHOCYTE: 81%
  MEAN CORPUSCULAR HEMOGLOBIN: 24.93 pg
  MEAN CORPUSCULAR HEMOGLOBIN CONCENTRATION: 39.62 G/DL
  MEAN CORPUSCULAR VOLUME: 62.85 fL
  MONOCYTE: 0.83%
  NEUTROPHIL: 17.83%
  NUCLEATED RED BLOOD CELLS: 0 /100WBC
  PLATELET COUNT: 912.17 x10E3/uL
  ALANINE AMINOTRANSFERASE: 544.67 u/L
  ALBUMIN: 4.05 G/DL
  ALKALINE PHOSPHATASE: 371.33 u/L
  ASPARTATE AMINOTRANSFERASE: 3091.33 u/L
  BLOOD UREA NITROGEN: 15.5 mg/dL
  CARBON DIOXIDE: 33.83 mmol/L
  CHLORIDE: 98.33 MEQ/L
  CHOLESTEROL: 55 mg/dL
  CREATINE PHOSPHOKINASE: 312.83 u/L
  CREATININE: 0.32 mg/dL
  GLUCOSE: 129.83 mg/dL
  LACTATE DEHYDROGENASE: 4392.83 u/L
  LIPASE: 10 u/L
  PHOSPHORUS: 9.72 mg/dL
  POTASSIUM: 5.12 MEQ/L
  SODIUM: 144.23 MEQ/L
  TOTAL BILIRUBIN: 0.27 mg/dL
  TOTAL PROTEIN: 6.05 G/DL
  URIC ACID: 0.52 mg/dL
